In US12473305B2, “Pyrazole boronic acid compound, pharmaceutical composition containing same, and uses thereof” (BEIJING SONGRUN PHARMACEUTICAL TECHNOLOGY CO., LTD., priority 2020, dated 2025):
pIC50: −log10 of the molar value. Where a name gives a salt, the structure may show the parent alone.

Assays:
[1] = tested on: Human melanoma cell line A375; test: CellTiter-Glo tumor cell proliferation, A375; format: cell-based; settings: 72 h; for inhibition at 1 µM / inhibition at 10 µM: read-out: Inhibition rate A375 (%); for pIC50: CellTiter-Glo
Description: (§1) The effect of compounds on tumor cell proliferation was detected by CellTiter-Glo method. Human melanoma cell line A375, non-small cell lung cancer cell line A549, human lung adenocarcinoma cell line H1299, colorectal cancer cell line HCT116, liver cancer cell line HepG2 and gastric cancer cell line MGC80-3 were cultured in vitro. The cells were collected after growing to the logarithmic growth phase, centrifuged at 1000 rpm for 5 min, and suspended in an appropriate amount of medium after discarding the supernatant, and the cell concentration was adjusted to 2×10^4/mL. The cell suspension was inoculated onto the 384-well cell culture plate, with 50 μL per well. After being cultured in a cell incubator (37° C., 5% CO2) for 24 h, 5 μL of drug diluted by the cell culture medium was added into each well for the treatment group. Each drug was provided in triplicate. After 72 h incubation in the incubator, 20 μL of CellTiter-Glo was added into each well, and the relative luminescence unit (RLU) was measured with Multimode Microplate Reader Varioskan Flash (Thermo Scientific, USA) after placed at 37° C. for 20 min, and compared with the RLU of the control group. SigmaPlot 10.0 software was used to calculate the inhibition rate and IC50 value.

[2] = tested on: colorectal cancer cell line HCT116; test: CellTiter-Glo tumor cell proliferation, HCT116; format: cell-based, human; settings: 72 h; for inhibition at 1 µM / inhibition at 10 µM: read-out: Inhibition rate HCT116 (%); for pIC50: CellTiter-Glo
Description: as §1

[3] = tested on: non-small cell lung cancer cell line A549; test: CellTiter-Glo tumor cell proliferation, A549; format: cell-based, human; settings: 72 h; for inhibition at 1 µM / inhibition at 10 µM: read-out: Inhibition rate A549 (%); for pIC50: CellTiter-Glo
Description: as §1

[4] = tested on: human multiple myeloma RPMI 8226; test: Pharmacodynamic study, RPMI 8226 subcutaneous xenograft; format: in vivo, female NOD/SCID mice; settings: positive control 0.5 mg/kg, twice a week, tail vein, day of the last administration
Description: The anti-tumor effect in vivo was studied by using the tumor animal model obtained by subcutaneous xenotransplantation of cell lines into female NOD/SCID mice (purchased from Sipeifu Biotechnology Co., Ltd.).
RPMI 8226 cells were subcutaneously inoculated into NOD/SCID mice, and human multiple myeloma subcutaneously transplanted tumor model was successfully established 9 days after inoculating the cells. The test was divided into vehicle (0.3 mL DMSO, 0.27 mL Tween-80, 2.43 mL normal saline) control group, compound 30 low-dose group (20 mg/kg), compound 30 medium-dose group (30 mg/kg), compound 30 high-dose group (40 mg/kg), compound 39 low-dose group (5 mg/kg), compound 39 medium-dose group (10 mg/kg), and compound 39 high-dose group (15 mg/kg), and bortezomib (API purchased from Yangtze River Pharmaceutical) was used as the positive control group (0.5 mg/kg); 5 tumor-bearing mice established above in each group were administered by tail vein twice a week for nine times in total. The long diameter a (mm) of the tumor and the short diameter b (mm) of the tumor perpendicular to the long diameter were measured with digital electronic caliper twice a week. The calculation formula of tumor volume was: TV=ab^2/2; and the calculation formula of relative tumor volume was: RTV=Vt/Vo, Vo was the tumor volume measured when the mice in each group were divided into cages and administered for the first time (d1), and Vt was the tumor volume measured at the last administration. The animals were sacrificed 31 days (d22) after inoculation of RPMI 8226 cells, and weighed. The tumor mass was dissected and weighed, and the tumor inhibition rate was calculated according to the following formula: […]

SMILES | inhibition at 1 µM ([1]; Homo sapiens, A-375) [%] | inhibition at 10 µM ([1]; Homo sapiens, A-375) [%] | inhibition at 1 µM ([2]; Homo sapiens, HCT-116) [%] | inhibition at 10 µM ([2]; Homo sapiens, HCT-116) [%] | inhibition at 1 µM ([3]; Homo sapiens, A549) [%] | inhibition at 10 µM ([3]; Homo sapiens, A549) [%] | further results
CC(C)C[C@H](NC(=O)Cn1nc(-c2ccccc2OS(=O)(=O)c2cccc(C(F)(F)F)c2)cc1-c1ccc(F)cc1)B(O)O [Compound 16, (R)-(1-(2-(5-(4-fluorophenyl)-3-(2-(((3-(trifluoromethyl)phenyl)sulfonyl)oxy)phenyl)-1H-pyrazol-1-yl)acetamido)-3-methylbutyl)boronic acid] | 14.2 | 91.9 | 8.3 | 93.8 | 1.6 | 36.9 | –
CC(C)C[C@H](NC(=O)Cn1nc(-c2ccccc2OS(=O)(=O)c2cccc(C(F)(F)F)c2)cc1-c1ccc(Cl)cc1)B(O)O [Compound 17, (R)-(1-(2-(5-(4-chlorophenyl)-3-(2-(((3-(trifluoromethyl)phenyl)sulfonyl)oxy)phenyl)-1H-pyrazol-1-yl)acetamido)-3-methylbutyl)boronic acid] | 8.3 | 56.1 | 13.6 | 70.6 | 0.3 | 1.9 | –
CC(C)C[C@H](NC(=O)Cn1nc(-c2ccccc2OS(=O)(=O)c2cccc(C(F)(F)F)c2)cc1-c1ccc(C#N)cc1)B(O)O [Compound 18, (R)-(1-(2-(5-(4-cyanophenyl)-3-(2-(((3-(trifluoromethyl)phenyl)sulfonyl)oxy)phenyl)-1H-pyrazol-1-yl)acetamido)-3-methylbutyl)boronic acid] | 4.6 | 81.1 | 5.5 | 89.7 | 7.1 | 29 | –
CC(C)C[C@H](NC(=O)Cn1nc(-c2ccccc2OS(=O)(=O)c2cccc(C(F)(F)F)c2)cc1-c1ccc(S(C)(=O)=O)cc1)B(O)O [Compound 19, (R)-(1-(2-(5-(4-(methylsulfonyl)phenyl)-3-(2-(((3-(trifluoromethyl)phenyl)sulfonyl)oxy)phenyl)-1H-pyrazol-1-yl)acetamido)-3-methylbutyl)boronic acid] | 4.1 | 45.2 | 14.5 | 33.9 | 8.7 | 7.9 | –
Cc1ccc(-c2cc(-c3ccccc3OS(=O)(=O)c3cccc(C(F)(F)F)c3)nn2CC(=O)N[C@H](B(O)O)C(C)C)cc1 [Compound 20, (R)-(1-(2-(5-(4-methyl-phenyl)-3-(2-(((3-trifluoromethylphenyl)sulfonyl)oxy)phenyl)-1H-pyrazol-1-yl)acetamido)isobutyl)boronic acid] | 11.5 | 61.9 | 9.2 | 85.1 | 1.2 | 4.2 | –
COc1ccc(-c2cc(-c3ccccc3OS(=O)(=O)c3cccc(C(F)(F)F)c3)nn2CC(=O)N[C@@H](CC(C)C)B(O)O)cc1 [Compound 21, (R)-(1-(2-(5-(4-methoxyphenyl)-3-(2-(((3-(trifluoromethyl)phenyl)sulfonyl)oxy)phenyl)-1H-pyrazol-1-yl)acetamido)-3-methylbutyl)boronic acid] | 2 | 44.1 | 11.4 | 62.2 | 4.4 | 6.4 | –
CC(C)C[C@H](NC(=O)Cn1nc(-c2ccccc2OS(=O)(=O)c2cccc(C(F)(F)F)c2)cc1-c1ccc(-c2ccccc2)cc1)B(O)O [Compound 22, (R)-(1-(2-(5-([1,1′-biphenyl]-4-yl)-3-(2-(((3-(trifluoromethyl)phenyl)sulfonyl)oxy)phenyl)-1H-pyrazol-1-yl)acetamido)-3-methylbutyl)boronic acid] | 10.9 | 39.1 | 3.9 | 18.1 | 3.7 | 16.1 | –
CC(C)C[C@H](NC(=O)Cn1nc(-c2ccccc2OS(=O)(=O)c2cccc(C(F)(F)F)c2)cc1-c1ccc(OCc2ccccc2)cc1)B(O)O [Compound 23, (R)-(1-(2-(5-(4-(benzyloxy)phenyl)-3-(2-(((3-(trifluoromethyl)phenyl)sulfonyl)oxy)phenyl)-1H-pyrazol-1-yl)acetamido)-3-methylbutyl)boronic acid] | 5.7 | 77 | 2.6 | 55.6 | 7.4 | 63.4 | –
CC(C)C[C@H](NC(=O)Cn1nc(-c2ccccc2OS(=O)(=O)c2cccc(C(F)(F)F)c2)cc1-c1ccco1)B(O)O [Compound 24, (R)-(1-(2-(5-(furan-2-yl)-3-(2-(((3-(trifluoromethyl)phenyl)sulfonyl)oxy)phenyl)-1H-pyrazol-1-yl)acetamido)-3-methylbutyl)boronic acid] | 14.9 | 97 | 4.9 | 97.1 | 1.9 | 66.7 | –
CC(C)C[C@H](NC(=O)Cn1nc(-c2ccccc2OS(=O)(=O)c2cccc(C(F)(F)F)c2)cc1-c1cccs1)B(O)O [Compound 25, (R)-(3-methyl-1-(2-(5-(thiophen-2-yl)-3-(2-(((3-(trifluoromethyl)phenyl)sulfonyl)oxy)phenyl)-1H-pyrazol-1-yl)acetamido)butyl)boronic acid] | 10.3 | 97.7 | 5.3 | 97.2 | 6.2 | 71.2 | –
Cc1cc(-c2cccc(NS(=O)(=O)c3cccc(C(F)(F)F)c3)c2)nn1CC(=O)N[C@@H](CC(C)C)B(O)O [Compound 26] | – | – | – | – | – | – | pIC50 [1]: 5.59; pIC50 [2]: 5.85; pIC50 [3]: 5.51
CC(C)C[C@H](NC(=O)Cn1nc(-c2cccc(O)c2)cc1-c1ccccc1)B(O)O [Compound 27, (R)-(1-(2-(3-(3-hydroxyphenyl)-5-phenyl-1H-pyrazol-1-yl)acetamido)3-methylbutyl)boronic acid] | – | – | – | – | – | – | pIC50 ([1]; Homo sapiens, A-375): 6.04; pIC50 ([2]; Homo sapiens, HCT-116): 6.52; pIC50 ([3]; Homo sapiens, A549): 6.17
CC(C)C[C@H](NC(=O)Cn1nc(-c2cccc(OS(=O)(=O)c3cccc(C(F)(F)F)c3)c2)cc1-c1ccccc1)B(O)O [Compound 28] | – | – | – | – | – | – | pIC50 [1]: 5.08; pIC50 [2]: 5.47; pIC50 [3]: 5.06
CC(C)C[C@H](NC(=O)Cn1nc(-c2cccc(OCCN(C)C)c2)cc1-c1ccccc1)B(O)O [Compound 29, (R)-(1-(2-(3-(3-(2-(dimethylamino)ethoxy)phenyl)-5-phenyl-1H-pyrazol-1-yl)acetamido)-3-methylbutyl)boronic acid hydrochloride] | – | – | – | – | – | – | pIC50 ([1]; Homo sapiens, A-375): 5.84; pIC50 ([2]; Homo sapiens, HCT-116): 6.04; pIC50 ([3]; Homo sapiens, A549): 5.44
CC(C)C[C@H](NC(=O)Cn1nc(-c2cccc(OCCCN3CCOCC3)c2)cc1-c1ccccc1)B(O)O [Compound 31, (R)-(3-methyl-1-(2-(3-(3-(3-morpholinopropoxy)phenyl)-5-phenyl-1H-pyrazol-1-yl)acetamido)butyl)boronic acid hydrochloride] | – | – | – | – | – | – | pIC50 ([1]; Homo sapiens, A-375): 6.16; pIC50 ([2]; Homo sapiens, HCT-116): 6.30; pIC50 ([3]; Homo sapiens, A549): 5.66
CC(C)C[C@H](NC(=O)[C@H](Cc1ccccc1)NC(=O)c1cnccn1)B(O)O [bortezomib, reference compound] | – | – | – | – | – | – | Relative tumor volume (x ± S) [4]: 5.17 ± 0.98; T/C (%) [4]: 55.41%; TGI (%) [4]: 44.59%; Tumor volume (x ± S) ([4]; in mm³ (unit assumed)): 359.97 ± 65.13
